{
  "source": "patent USRE40912E1",
  "about": "“Process for isolation, purification, and recrystallization of lutein from saponified marigold oleoresin and uses thereof” (The Catholic University of America, priority 1994, dated 2009)",
  "key": {"[1]": {"assay": "human study of oral lutein dose, plasma carotenoid profile", "format": "in vivo", "details": "oral 10 mg lutein dose as suspension in olive oil (ethanol, α-tocopherol, polysorbate 80), spread on a bagel", "description": "Carotenoids are considered among the fat soluble nutrients and are usually associated with the lipoprotein fractions of human blood. […] In the following, the procedure employed for the preparation of a small batch (100 dose, each 10 mg) of purified lutein is described.\nPurified lutein from marigold flowers extract (1 g) was added to absolute alcohol (75 mL). To this solution α-tocopherol (50 mg) and food grade polysorbate 80 (an emulsifier, 4 g) was added and the mixture was sonicated for 10 minutes. The addition of α-tocopherol (0.01% by weight) was to stabilize lutein and prevent this compound from possible oxidation during long term storage. The above suspension was then mixed with 350 g of light and mild olive oil (saturated fat/polyunsaturated fat=2/1) and the mixture was sonicated for 5 minutes. […] 7 mL aliquots of this suspension was shown by spectrophotometric analysis to contain 10 mg of lutein. At various intervals, the stability and the purity of lutein suspension in the olive oil was determined by spectrophotometric and HPLC analysis. […] In one study each 7 mL aliquot of the olive oil (containing 10 mg lutein) was spread on a bagel prior to ingestion. Alternatively, this small volume of oil can be readily taken with other foods. […]"}, "[2]": {"assay": "stability of lutein suspension in olive oil by spectrophotometric and HPLC analysis", "format": "physicochemical", "details": "suspension in olive oil with α-tocopherol and polysorbate 80, stored under nitrogen in a refrigerator", "description": "Purified lutein from marigold flowers extract (1 g) was added to absolute alcohol (75 mL). To this solution α-tocopherol (50 mg) and food grade polysorbate 80 (an emulsifier, 4 g) was added and the mixture was sonicated for 10 minutes. The addition of α-tocopherol (0.01% by weight) was to stabilize lutein and prevent this compound from possible oxidation during long term storage. The above suspension was then mixed with 350 g of light and mild olive oil (saturated fat/polyunsaturated fat=2/1) and the mixture was sonicated for 5 minutes. […] 7 mL aliquots of this suspension was shown by spectrophotometric analysis to contain 10 mg of lutein. At various intervals, the stability and the purity of lutein suspension in the olive oil was determined by spectrophotometric and HPLC analysis. […] In one study each 7 mL aliquot of the olive oil (containing 10 mg lutein) was spread on a bagel prior to ingestion. Alternatively, this small volume of oil can be readily taken with other foods. Although this preparation of lutein dose is appropriate for conducting human studies with a limited number of subjects, other preparations of this compound into tablets or capsules can be accomplished. The formulation of β-carotene into tablets and capsules which has been developed by Hoffmann-La Roche Inc. (Nutley, N.J.), may also be found suitable for lutein with some minor modifications."}},
  "data": [
    {"smiles": "CC1=C[C@H](O)CC(C)(C)[C@H]1/C=C/C(C)=C/C=C/C(C)=C/C=C/C=C(C)/C=C/C=C(C)/C=C/C1=C(C)C[C@@H](O)CC1(C)C", "note": "[lutein, (3R,3′R,6′R)-β,ε-Carotene-3,3′-diol]", "values": [
      {"measurement": "absorption of lutein by the subjects as determined from analysis of their plasma carotenoid profile", "setting": "[1]", "result": "excellent absorption"},
      {"measurement": "stability of lutein suspension in olive oil", "setting": "[2]", "result": "stable for up to one month"}
    ]}
  ]
}
